Assay results as given in patent EP0528486A2, “Non-substrate inhibitors of farnesyl protein transferase” (MERCK & CO. INC., priority 1991, dated 1993).
Where a SMILES comes first, the peptide text is derived from it.

Columns and labels:
Assay type in all cases: biochemical, bovine
[1] = molecular target: T1, farnesyl-protein transferase (Bos taurus, UniProt P29702+P49355); test: Inhibition of Ras farnesylation in vitro; conditions: Ras-CVLS at 3.5 µM, 0.25 µM [³H]FPP, partially purified enzyme; average of 2-5 determinations; read-out: IC₅₀
T1 construct: partially pure bovine brain farnesyl-protein transferase; from tissue; host or cells: bovine brain (cerebral lobes)
Method: Polyisoprenylation of Ras- [³H]Farnesyl diphosphate (FPP) (20 Ci/mmol) was purchased from New England Nuclear. Farnesyl-protein transferase activity assays were carried out at 30°C unless noted otherwise. A typical reaction contained (in a final volume of 50 µl):[³H]farnesyl diphosphate, Ras protein (3.5µM), 50 mM HEPES, pH 7.5, 5 mM MgCl₂ 5 mM dithiothreitol and farnesyl-protein transferase. After thermally pre-equilibrating the assay mixture in the absence of enzyme, reactions were initiated by the addition of farnesyl-protein transferase and stopped at timed intervals by the addition of 1M HCl in ethanol (1 mL). The quenched reactions were allowed to stand for 15 minutes (to complete the precipitation process). After adding 2 mL of 100% ethanol, the reactions were vacuum-filtered through Whatmann GF/C filters. Filters were washed four time with 2 mL aliquots of 100% ethanol, mixed with scintillation fluid (10 mL) and then counted in a Beckmann LS3801 scintillation couter.
For inhibition studies, assays were run as described above, except putative inhibitors were added at the concentration indicated, IC₅₀ values were determined with both farnesyl-protein transferase substrates at their KM concentrations. The KM for Ras protein substrate having the CAAX sequence, CVLS, is 3.5 µM and the KM for FPP is 0.25µM.
Ras proteins used as substrates were expressed in E. coli and purified. […]

[2] = molecular target: T1, farnesyl-protein transferase; test: Tetrapeptides tested as farnesylation substrates (TLC / autoradiography); conditions: for Farnesylation Substrate: peptide 200 µM, partially pure bovine farnesyl-protein transferase, 0.5 µM [3H] FPP, 30 min. at 30°C
Text: When a peptide was used as the acceptor substrate, there were two changes to the assay: (1) Ras protein was excluded and, (2) the reactions were stopped by the additon of one tenth volume of 0.5 M EDTA. A portion of the reaction mixture was spotted onto a TLC plate (silica gel 60 thin layer chromatography plates (20 cm x 20 cm, 0.25 mm layer thickness) were from E. Merck (Darrnstadt) and eluted with either ethyl acetate:pyridine: acetic acid:water (10:5:1:3) or n-propanol:water (7:3) elution systems. After drying under vacuum, the plates were sprayed with En³Hance and exposed to X-ray film at -70°C.
CAAX tetrapeptides and other tetrapeptides including Cys-Xaa¹-Xaa²-Xaa³-NRR¹ were tested as farnesylation substrates using [³H]FPP and partially pure bovine brain farnesyl-protein transferase. […] Thin layer chromatography (TLC) conditions were developed which resolved the substrates farnesyl diphosphate (Rf = 0.06) and CVLS (Rf = 0.28) and product S-farnesyl-CVLS (Rf = 0.58). These Rf values reflect TLC conditions using ethylacetate:pyridine: acetic acid:water (10:5:1:3) as the eluent. In another elution system, n-propanol:water (7:3), farnesyl-diphosphate (Rf= 0.18) was readily seperated from farnesylated tetrapeptides (examples: CAIS (Rf=0.84) and CAIM (Rf=0.83)). Quenched reaction mixtures containing peptide, farnesyl-diphosphate and farnesyl-protein transferase were separated by TLC followed by visualization of the radioactive species by autoradiography. […] Control peptides having a Cys to Ser substitution were not substrates.
The indicated peptides at 200 µM were incubated with partially pure bovine farnesyl-protein transferase and 0.5 µM [3H] FPP for 30 min. at 30°C. Autoradiographic exposure time was overnight (15-20 hr).

[3] = molecular target: T1, farnesyl-protein transferase; test: Mechanism of inhibition using homogenous, pure farnesyl-protein transferase
Method: To prepare pure enzyme, the nonapeptide, […], was covalently bound to Affigel-10 under anhydrous conditions as described by the manufacturer (15 µmol peptide per 1 mL of Affigel-10). Unreacted resin was treated with ethanolamine. After multiple passes of ω-aminooctyl-agarose-column-purified protein over the peptide column, the column was washed and eluted as described by Reiss, et al., (1990) ibid, to recover farnesyl-protein transferase activity.

IC50 [1] | Farnesylation Substrate [2] | mechanism of inhibition with respect to Ras-CVLS protein substrate [3] | mechanism of inhibition with respect to farnesyl diphosphate [3] | farnesylation substrate (result in words, TLC autoradiography) ([2]; [³H]FPP, partially pure bovine brain farnesyl-protein transferase) | SMILES
2.3 µM | - (< 1% conversion) |  |  |  | CSCC[C@H](NC(=O)[C@H](Cc1ccccc1)NC(=O)[C@@H](NC(=O)[C@@H](N)CS)C(C)C)C(N)=O [CVFM-NH₂, Cys-Val-Phe-Met-NH₂] (H-CVFM-NH2)
16 µM | - (< 1% conversion) | competitive inhibitor | not a competitive inhibitor | do not serve as effective substrates | CC(C)C[C@H](NC(=O)[C@@H](NC(=O)[C@@H](N)CS)C(C)C)C(=O)N[C@@H](CO)C(N)=O [CVLS-NH₂, Cys-Val-Leu-Ser-NH₂] (H-CVLS-NH2)
